The values that follow come from US10913727B2, “Modulators of the integrated stress pathway” (Calico Life Sciences LLC, priority 2016, dated 2021).

A value given as a limit tells only on which side of the number the result lay.

In this experiment the test system is HEK293T cells carrying the ATF4 luciferase reporter. The experiment is described as follows: ATF4-Luc assay, in vitro model of Vanishing Cell White Matter Disease (VWMD). Format: cell-based. The following applies: Homo sapiens, HEK-293T, 1 μg/mL tunicamycin, 7 hours, One Glo luminescence. As for the experimental part: In order to test exemplary compounds of the invention in a cellular context, a stable VWMD cell line was first constructed. The ATF4 reporter was prepared by fusing the human full-length ATF4 5′-UTR (NCBI Accession No. BC022088.2) in front of the firefly luciferase (FLuc) coding sequence lacking the initiator methionine as described in Sidrauski et al (eLife 2013). The construct was used to produce recombinant retroviruses using standard methods and the resulting viral supernatant was used to transduce HEK293T cells, which were then subsequently selected with puromycin to generate a stable cell line.
HEK293T cells carrying the ATF4 luciferase reporter were plated on polylysine coated 384-well plates (Greiner Bio-one) at 30,000 cells per well. Cells were treated the next day with 1 μg/mL tunicamycin and 200 nM of a compound of Formula (I) for 7 hours. Luminescence was measured using One Glo (Promega) as specified by the manufacturer. Cells were maintained in DMEM with L-glutamine supplemented with 10% heat-inactivated FBS (Gibco) and Antibiotic-Antimycotic solution (Gibco).
Table 2 below summarizes the EC50 data obtained using the ATF4-Luc assay for exemplary compounds of the invention.
`O=C(COc1ccc(Cl)c(F)c1)NC12CC(NC(=O)c3cc(C(F)(F)F)no3)(C1)C2` [Compound 380, N-{3-[2-(4-chloro-3-fluorophenoxy)acetamido]bicyclo[1.1.1]pentan-1-yl}-3-(trifluoromethyl)-1,2-oxazole-5-carboxamide]: the EC50 (as a rule, the concentration that produces a half-maximal response) is 0.25 to 1 µM.

Turning to `CCc1ccnc(C(=O)NC23CC(NC(=O)COc4ccc(Cl)c(F)c4)(C2)C3)c1` [Compound 197, N-{3-[2-(4-chloro-3-fluorophenoxy)acetamido]bicyclo[1.1.1]pentan-1-yl}-4-ethylpyridine-2-carboxamide], the EC50 lay within 0.05 to 0.25 µM.

For `Cc1c(C(=O)NC23CCC(NC(=O)COc4ccc(Cl)c(F)c4)(CC2)CC3O)cnn1-c1ccccc1` (centres unmarked) [Compound 221, N-{4-[2-(4-chloro-3-fluorophenoxy)acetamido]-2-hydroxybicyclo[2.2.2]octan-1-yl}-5-methyl-1-phenyl-1H-pyrazole-4-carboxamide], the EC50 was 1 to 2 µM.

In the case of `O=C(COc1ccc(Cl)c(F)c1)NC12CC(NC(=O)c3ccc4nccn4c3)(C1)C2` [Compound 811, N-{3-[2-(4-chloro-3-fluorophenoxy)acetamido]bicyclo[1.1.1]pentan-1-yl}imidazo[1,2-a]pyridine-6-carboxamide], the EC50 was > 2 µM.

Regarding `CCc1cnc(C(=O)NC23CCC(NC(=O)COc4ccc(Cl)c(F)c4)(C2)C3)cn1` [Compound 712, N-{4-[2-(4-chloro-3-fluorophenoxy)acetamido]bicyclo[2.1.1]hexan-1-yl}-5-ethylpyrazine-2-carboxamide], the EC50 lay in the range of 0.25 to 1 µM.

On to `Cc1cnc(C(=O)NC23CCC(NC(=O)COc4ccc5c(c4)OC(F)(F)O5)(CC2)[C@@H](O)C3)cn1` [Compound 638, N-[(3S)-4-{2-[(2,2-difluoro-2H-1,3-benzodioxol-5-yl)oxy]acetamido}-3-hydroxybicyclo[2.2.2]octan-1-yl]-5-methylpyrazine-2-carboxamide], for which the EC50 is 0.25 to 1 µM.

Take `O=C(COc1ccc(Cl)c(F)c1)NC12CC(NC(=O)c3ccccc3F)(C1)C2` [Compound 507, N-{3-[2-(4-chloro-3-fluorophenoxy)acetamido]bicyclo[1.1.1]pentan-1-yl}-2-fluorobenzamide]: the EC50 fell in the range of 0.25 to 1 µM.

As to `Cn1ccc(C(=O)NC23CC(NC(=O)COc4ccc(Cl)c(F)c4)(C2)C3)n1` [Compound 389, N-{3-[2-(4-chloro-3-fluorophenoxy)acetamido]bicyclo[1.1.1]pentan-1-yl}-1-methyl-1H-pyrazole-3-carboxamide], the EC50 was 0.25 to 1 µM.

`C[S+]([O-])c1ccccc1C(=O)NC12CC(NC(=O)COc3ccc(Cl)c(F)c3)(C1)C2` (centres unmarked) [Compound 858, N-{3-[2-(4-chloro-3-fluorophenoxy)acetamido]bicyclo[1.1.1]pentan-1-yl}-2-(methanesulfinyl)benzamide]: the EC50 was in the range of 1 to 2 µM.

Take `Cc1cc(C(=O)NC23CCC(NC(=O)COc4ccc5c(c4)OC(F)(F)O5)(CC2)[C@@H](O)C3)on1` [Compound 636, N-[(3S)-4-{2-[(2,2-difluoro-2H-1,3-benzodioxol-5-yl)oxy]acetamido}-3-hydroxybicyclo[2.2.2]octan-1-yl]-3-methyl-1,2-oxazole-5-carboxamide]: the EC50 was in the range of 0.25 to 1 µM.

As to `O=C(COc1ccc(Cl)c(Cl)c1)NC12CC(NC(=O)c3ccc(Cl)c(F)c3)(C1)C2` [Compound 685, 4-chloro-N-{3-[2-(3,4-dichlorophenoxy)acetamido]bicyclo[1.1.1]pentan-1-yl}-3-fluorobenzamide], the 50% effective concentration (EC50) is < 0.05 µM.

For `O=C(COc1ccc(Cl)c(Cl)c1)NC12CC(NC(=O)c3nc(C4CC4)cs3)(C1)C2` [Compound 697, 4-cyclopropyl-N-{3-[2-(3,4-dichlorophenoxy)acetamido]bicyclo[1.1.1]pentan-1-yl}-1,3-thiazole-2-carboxamide], the EC50 was < 0.05 µM.

As to `CC(=O)Nc1ccc(C(=O)NC23CC(NC(=O)COc4ccc(Cl)c(F)c4)(C2)C3)cc1` [Compound 816, 4-acetamido-N-{3-[2-(4-chloro-3-fluorophenoxy)acetamido]bicyclo[1.1.1]pentan-1-yl}benzamide], the EC50 was > 2 µM.

As for `N#Cc1ccc(C(=O)NC23CC(NC(=O)COc4ccc(Cl)c(F)c4)(C2)C3)nc1` [Compound 173, N-{3-[2-(4-chloro-3-fluorophenoxy)acetamido]bicyclo[1.1.1]pentan-1-yl}-5-cyanopyridine-2-carboxamide], the EC50 fell in the range of 0.05 to 0.25 µM.

`O=C(COc1ccc(Cl)c(Cl)c1)NC12CCC(NC(=O)c3cc(C(F)F)no3)(CC1)C[C@@H]2O` [Compound 758, N-{(3S)-4-[2-(3,4-dichlorophenoxy)acetamido]-3-hydroxybicyclo[2.2.2]octan-1-yl}-3-(difluoromethyl)-1,2-oxazole-5-carboxamide]: the concentration for a half-maximal effect (EC50) was < 0.05 µM.

`O=C(COc1ccc(Cl)c(F)c1)NC12CCC(NC(=O)c3cncs3)(CC1)C(O)C2` (centres unmarked) [Compound 213, N-{4-[2-(4-chloro-3-fluorophenoxy)acetamido]-2-hydroxybicyclo[2.2.2]octan-1-yl}-1,3-thiazole-5-carboxamide]: the EC50 lay in the range of 0.25 to 1 µM.

For the compound `Cc1ccnc(C(=O)NC23CC(NC(=O)COc4ccc(Cl)c(Cl)c4)(C2)C3)c1` [Compound 526, N-{3-[2-(3,4-dichlorophenoxy)acetamido]bicyclo[1.1.1]pentan-1-yl}-4-methylpyridine-2-carboxamide], the EC50 is 0.25 to 1 µM.

For the compound `CN(C)c1cccc(C(=O)NC23CC(NC(=O)COc4ccc(Cl)c(F)c4)(C2)C3)c1` [Compound 534, N-{3-[2-(4-chloro-3-fluorophenoxy)acetamido]bicyclo[1.1.1]pentan-1-yl}-3-(dimethylamino)benzamide], the EC50 fell in the range of 0.25 to 1 µM.

Consider `O=C(COc1ccc(Cl)c(F)c1)NC12CCC(NC(=O)c3cnc(C4CC4)cn3)(CC1)C[C@@H]2O` [Compound 653, N-{(3S)-4-[2-(4-chloro-3-fluorophenoxy)acetamido]-3-hydroxybicyclo[2.2.2]octan-1-yl}-5-cyclopropylpyrazine-2-carboxamide], for which the EC50 is 0.25 to 1 µM.

Take `Cc1cccn2cc(C(=O)NC34CCC(NC(=O)COc5ccc(Cl)c(F)c5)(CC3)C(O)C4)nc12` (centres unmarked) [Compound 599, N-{4-[2-(4-chloro-3-fluorophenoxy)acetamido]-3-hydroxybicyclo[2.2.2]octan-1-yl}-8-methylimidazo[1,2-a]pyridine-2-carboxamide]: the EC50 lay within 0.25 to 1 µM.

`Cn1ccc(C(=O)NC23CCC(NC(=O)COc4ccc(Cl)c(F)c4)(CC2)C(O)C3)n1` (centres unmarked) [Compound 361, N-{4-[2-(4-chloro-3-fluorophenoxy)acetamido]-3-hydroxybicyclo[2.2.2]octan-1-yl}-1-methyl-1H-pyrazole-3-carboxamide]: the EC50 lay within 0.05 to 0.25 µM.

For `O=C(COc1ccc(Cl)c(F)c1)NC12CC(NC(=O)c3ccno3)(C1)C2` [Compound 311, N-{3-[2-(4-chloro-3-fluorophenoxy)acetamido]bicyclo[1.1.1]pentan-1-yl}-1,2-oxazole-5-carboxamide], the EC50 lay within 1 to 2 µM.

`O=C(COc1ccc(Cl)c(F)c1)NC12CC(NC(=O)c3cc(-n4cncn4)ccn3)(C1)C2` [Compound 481, N-{3-[2-(4-chloro-3-fluorophenoxy)acetamido]bicyclo[1.1.1]pentan-1-yl}-4-(1H-1,2,4-triazol-1-yl)pyridine-2-carboxamide]: the EC50 lay within 1 to 2 µM.

With `O=C(COc1ccc(Cl)cc1)NC12CC(Nc3nnc(-c4ccc(Cl)cc4)s3)(C1)C2` [Compound 271, 2-(4-chlorophenoxy)-N-(3-{[5-(4-chlorophenyl)-1,3,4-thiadiazol-2-yl]amino}bicyclo[1.1.1]pentan-1-yl)acetamide], the EC50 lay within 0.25 to 1 µM.

Regarding `Cn1c(=O)n(C)c2cc(C(=O)NC34CC(NC(=O)COc5ccc(Cl)c(F)c5)(C3)C4)ccc21` [Compound 776, N-{3-[2-(4-chloro-3-fluorophenoxy)acetamido]bicyclo[1.1.1]pentan-1-yl}-1,3-dimethyl-2-oxo-2,3-dihydro-1H-benzimidazole-5-carboxamide], the EC50 was > 2 µM.

Consider `Cc1ccc(C(=O)NC23CCC(NC(=O)COc4ccc(Cl)c(F)c4)(CC2)CC3O)nc1` (centres unmarked) [Compound 169, N-{4-[2-(4-chloro-3-fluorophenoxy)acetamido]-2-hydroxybicyclo[2.2.2]octan-1-yl}-5-methylpyridine-2-carboxamide], for which the EC50 lay within 0.05 to 0.25 µM.

For `COCC(=O)Nc1ccccc1C(=O)NC12CC(NC(=O)COc3ccc(Cl)c(F)c3)(C1)C2` [Compound 887, N-{3-[2-(4-chloro-3-fluorophenoxy)acetamido]bicyclo[1.1.1]pentan-1-yl}-2-(2-methoxyacetamido)benzamide], the EC50 was in the range of 0.25 to 1 µM.

As for `Cc1oc(C2CC2)cc1C(=O)NC12CC(NC(=O)COc3ccc(Cl)c(F)c3)(C1)C2` [Compound 881, N-{3-[2-(4-chloro-3-fluorophenoxy)acetamido]bicyclo[1.1.1]pentan-1-yl}-5-cyclopropyl-2-methylfuran-3-carboxamide], the EC50 was > 2 µM.

In the case of `O=C(COc1ccc(Cl)c(F)c1)NC12CC(NC(=O)c3cc4n(n3)CCC4)(C1)C2` [Compound 259, N-{3-[2-(4-chloro-3-fluorophenoxy)acetamido]bicyclo[1.1.1]pentan-1-yl}-5,6-dihydro-4H-pyrrolo[1,2-b]pyrazole-2-carboxamide], the EC50 lay in the range of 0.25 to 1 µM.
